Entries after “also recorded” stand apart in the source; their conditions may differ.
Assays:
[1] = Serum gallium quantitation in the adjuvant arthritis study; assay type: in vivo, Male Lewis rats; conditions: daily oral 100 or 300 mg/kg, serum harvested one hour after final dosing
Description: Prophylactic treatment was initiated seven days prior to adjuvant injection by dosing with control vehicle or gallium maltolate (100 or 300 mg/kg gallium maltolate, containing 16 or 47 mg/kg gallium, respectively, in suspension with 1% carboxymethyl cellulose) seven days prior to adjuvant injection. Dosing was by daily oral gavage until termination. The dexamethasone-treated control animals were injected with a daily oral dose of dexamethasone (0.1 mg/kg). Body weights were measured regularly during the course of the study to track the effect of the drugs on the weight loss induced by the developing adjuvant disease, and dose volumes were adjusted accordingly. Prior to the onset of swelling, but after the establishment of systemic disease (about 7 days after adjuvant injection), caliper measurements were made of ankle joints. Ankles were measured every day until 14 days post-adjuvant injection when the rats were anesthetized and sacrificed. Serum was harvested one hour after final dosing for gallium quantitation. Hind paws, liver, and spleen were weighed, fixed, and processed for histopathologic evaluation. […] Splenic changes of inflammation, increased extramedullary hematopoiesis, and lymphoid atrophy were scored 0-5 using criteria similar to those used for scoring of inflammation. The primary endpoint was hepatomegaly, as determined by liver weight and histopathology.

[2] = system: Con A-treated mice (acute liver injury); assay: Concanavalin A-induced acute immune-mediated hepatitis; assay type: in vivo, Balb/c male mice; conditions: 150 mg/kg oral gavage for 4 days prior to Con A
Description: Concanavalin A (Con A) is a powerful mitogen for and activator of T lymphocytes and its intravenous administration to mice initiates an acute immune-mediated hepatitis. The effect of preemptive gallium maltolate administration on the development of acute liver injury was assessed in vivo.
Liver injury was induced by injecting 6-8 week old Balb/c male mice (weight 25 g) with Con A, 25 mg/kg in 250 μl of phosphate-buffered saline via the tail vein. The test animals were divided into three groups of 2-8 mice each: • (a) Con A treatment • (b) Vehicle (1% carboxymethyl cellulose solution in water) per oral gavage for 4 days prior to Con A treatment • (c) 150 mg/kg gallium maltolate per oral gavage for 4 days prior to Con A treatment
For determination of serum alanine aminotransferase (ALT) levels, blood was drawn from different groups of mice 16 hours after administering Con A and measured by a commercially available enzyme assay. […] (FIG. 4). Histological assessment of centrilobular necrosis of the liver was rated for severity on a scale of 0 to 3.

[3] = system: human patient exposed to a liver-damaging agent; assay: Human patient pretreated before exposure to a liver-damaging agent, serum liver enzymes monitored; assay type: in vivo; conditions: oral tablet or capsule to at least 10 ng/mL serum gallium before exposure; monitored every 12 hours
Description: A human patient, prior to exposure to a liver-damaging agent, is treated with gallium in the form of gallium maltolate combined with the appropriate standard excipients and/or fillers, in tablet or capsule form. Sufficient gallium maltolate is administered to obtain at least 10 ng/mL gallium in the patient's serum. The amount of gallium maltolate plus excipients necessary to reach this level is dependent on the formulation used and the size of the patient. The patient continues to take the oral medication in an amount to build the level of serum gallium and to maintain the level of at least 10 ng/mL serum.
After a period of up to 72 hours, or when the gallium serum concentration reaches the desired level, the patient is exposed to the liver-damaging agent.
The serum levels of liver enzymes are monitored at the start of the gallium treatment and every 12 hours thereafter. In particular, levels of […] and SGOT are measured. […] Gallium maltolate administration is discontinued after risk of liver damage is terminated.

[4] = system: adjuvant arthritic rats (adjuvant-induced hepatomegaly); assay: Adjuvant-induced acute arthritis model: hepatomegaly, liver weight and histopathology; assay type: in vivo
Description: A preclinical animal model was used to test the efficacy of oral gallium maltolate in treating hepatomegaly associated with adjuvant-induced acute arthritis. Male Lewis rats were used in the study. The study design was described in detail by Bendele et al. (1999) Toxicologic Pathology 27(1):134-142 and by Bendele (2001) J. Musculoskel. Neuron. Interact. 1(4):377-385.
Male Lewis rats (7 per group for gallium maltolate, 4 per group for normal controls and dexamethasone-treated controls) were injected with 100 μL of Freund's complete adjuvant/lipoidal amine (FCA/LA) subcutaneously at the base of the tail on study day 0 under anesthesia. There is a rapid onset (7 d) of arthritic symptoms in this model, including ankle inflammation, liver and spleen hypertrophy, bone resorption, and mild cartilage destruction.
Prophylactic treatment was initiated seven days prior to adjuvant injection by dosing with control vehicle or gallium maltolate (100 or 300 mg/kg gallium maltolate, containing 16 or 47 mg/kg gallium, respectively, in suspension with 1% carboxymethyl cellulose) seven days prior to adjuvant injection. Dosing was by daily oral gavage until termination. The dexamethasone-treated control animals were injected with a daily oral dose of dexamethasone (0.1 mg/kg). Body weights were measured regularly during the course of the study to track the effect of the drugs on the weight loss induced by the developing adjuvant disease, and dose volumes were adjusted accordingly. Prior to the onset of swelling, but after the establishment of systemic disease (about 7 days after adjuvant injection), caliper measurements were made of ankle joints. Ankles were measured every day until 14 days post-adjuvant injection when the rats were anesthetized and sacrificed. Serum was harvested one hour after final dosing for gallium quantitation. Hind paws, liver, and spleen were weighed, fixed, and processed for histopathologic evaluation. Adjuvant arthritic ankles were given scores of 0-5 (0=normal; 5=severe) for inflammation and bone resorption. Splenic changes of inflammation, increased extramedullary hematopoiesis, and lymphoid atrophy were scored 0-5 using criteria similar to those used for scoring of inflammation. The primary endpoint was hepatomegaly, as determined by liver weight and histopathology.

[5] = oral 100 and 300 mg/kg/day, adjuvant arthritic rats

**Q.** With Cc1occc(=O)c1[O-].Cc1occc(=O)c1[O-].Cc1occc(=O)c1[O-].[Ga+3] [gallium maltolate] as the compound, how does the “serum gallium levels attained” value [1] read?
**A.** dose-dependent

**Q.** What about the “serum alanine aminotransferase (ALT) levels” value ([2]; blood 16 hours after Con A, versus the other two test groups) of the same compound?
**A.** greatly reduced

**Q.** And the “centrilobular necrosis of the liver, histological assessment” value ([2]; severity scale 0 to 3)?
**A.** No necrosis

**Q.** What about the “serum levels of liver enzymes (SDOT and SGOT)” value [3] of the same compound?
**A.** do not rise to any significant extent

**Q.** What about the “lobular pattern of liver, histology (FIG. 3A)” value ([4]; 300 mg/kg/day oral for 21 days, 100x magnification) of the same compound?
**A.** No accentuation of the lobular pattern

**Q.** What about the signs of toxicity ([4]; daily oral dosing for 14 days, 100 or 300 mg/kg, Lewis rats) of the same compound?
**A.** no signs of toxicity

**Q.** And the “liver pathology, histopathological examination of the livers” value ([4]; gallium treated versus untreated adjuvant arthritic rats)?
**A.** inhibited the development of liver pathology

**Q.** And the “liver hypertrophy (adjuvant-induced hepatomegaly)” value [4, 5]?
**A.** marked reduction; also recorded: Significant dose-dependent protection

**Q.** What about the spleen hypertrophy [4, 5] of the same compound?
**A.** marked reduction

From patent publication US20070128294A1, “Treatment and prevention of liver adverse conditions using gallium” (priority 2005, published 2007)
